# Laboratory results reported in PubChem BioAssay AID624258 (Broad Institute, 2012).
# Active and inactive are the calls of the source. How the calls were made is not given here.
# Assay: Yeast SKN7 toxicity growth rescue counterscreen, Saccharomyces cerevisiae, plate reader, dose confirmatory (AID 624258);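 further: growth read after three days of incubation at 30 °C; 0% = median of neutral control wells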
# Details: S. cerevisiae SKN7-toxicity growth rescue, plate reader; at 6.8 µM (top of the series)
row,Compound,growth rescue activity
1,Cc1cc(C(=O)COC(=O)Cc2n[nH]c(=O)c3ccccc23)c(C)n1-c1cccc(C(F)(F)F)c1,-21.5% (inactive)
2,CCc1c(C2(O)CCCCC2)[nH]c2ccc(C(F)(F)F)cc12,85.9% (inactive)
3,CC(C)(C)C(=O)N1CCN(c2ccc([N+](=O)[O-])cc2Cl)CC1,-14.7% (inactive)

# Same assay, conditions: S. cerevisiae SKN7-toxicity growth rescue, plate reader; at 19.5 µM (top of the series)
row,Compound,growth rescue activity
1,O=C(NCCN1C(=O)S/C(=C\c2cccc(Cl)c2Cl)C1=O)C1=COCCO1,13.6% (inactive)
2,CC12CCC(O)CC1=CCC1C2CCC2(C)C3=NN=CC3CC12 (stereo not given),-53.7% (inactive)
3,Cc1ccc(Sc2cc(C)nc(-c3ccccn3)n2)cc1,-67.1% (inactive)
4,Cc1cc(O)ccc1N=Cc1c(C(F)(F)F)[nH][nH]c1=O,-11.8% (inactive)
5,CCCCc1ccc(-n2c(Cc3cccs3)n[nH]c2=S)cc1,-23.9% (inactive)
6,O=Cc1ccc(O)c2ncccc12,-72% (inactive)
7,CC(C)N1CCN(c2ccc(OCC3COC(Cn4cncn4)(c4ccc(Cl)cc4Cl)O3)cc2)CC1 (stereo not given),-56.9% (inactive)
8,CN(C)c1ccc(C=c2c3cc(O)ccc3n3c2cc(-c2ccccc2)[n+]3C)cc1,-34.8% (inactive)
9,CCOC(=O)c1cnc(-n2nc(C)cc2C)nc1NC1CCCC1,-62% (inactive)
10,CC12CNCC(C)(CN(C3(O)C(=O)Nc4ccc(Br)cc43)C1)C2=O (stereo not given),-39.9% (inactive)
11,O=C(N/N=C/c1ccc[nH]1)c1sc2ccccc2c1Cl,-72.2% (inactive)
12,Cc1ccc(Sc2ccc(NC(=O)CCl)cc2)cc1C,-34.2% (inactive)
13,C(=C1c2ccccc2-c2ccccc21)c1ccncc1,-46.7% (inactive)
14,C=CCOc1ccc(-c2n[nH]c(=S)o2)cc1,-47.1% (inactive)
15,Cc1cccc(Oc2nc(-c3ccccn3)nc3ccccc23)c1,-67.8% (inactive)
16,O=C(COC(=O)c1ccc([N+](=O)[O-])o1)NC12CC3CC(CC(C3)C1)C2,-18.4% (inactive)
17,Cc1cccc(N=Cc2[nH]c3ccc(Br)c(Cl)c3c2O)c1,-14.7% (inactive)
18,O=C(NCCCNc1ccc(C(F)(F)F)cc1[N+](=O)[O-])c1ccc(Cl)cc1,-14.8% (inactive)
19,N#Cc1c(-c2ccc(Cl)cc2)nc2n(c1=O)CCCS2,35.4% (inactive)
20,CCCc1c(C)nn(C(=O)/C(C#N)=N/Nc2ccccc2[N+](=O)[O-])c1C,-8.75% (inactive)
21,Cc1ccc(NC(=S)c2nc3ccccc3[nH]2)c(C)c1,32.1% (inactive)
22,CC1CC(C)(O)CC(C(O)CC2CC(=O)NC(=O)C2)C1=O (stereo not given),2.36% (inactive)
23,O=C1OCC(CO)(CO)N=C1NNc1ccc(Cl)c(Cl)c1,-52.3% (inactive)

row,Compound,growth rescue activity
1,CCC(Oc1ccc(Br)cc1Cl)C(=O)Nc1nnc(C2CC2)s1 (stereo not given),-50.3% (inactive)
2,CN(Cc1cccc(F)c1)C(=O)c1ccc(S(=O)(=O)N2CCCCCC2)cc1,-8.45% (inactive)
3,O=P(Nc1cccnc1)(Oc1ccccc1Cl)Oc1ccccc1Cl,-59% (inactive)
4,Cc1ccc(Nc2cc(C)nn2-c2nc(C)cc(C)n2)cc1,-73.3% (inactive)
5,Oc1ccc(Br)cc1/C=N/Nc1ccccn1,-73.9% (inactive)
6,CCC(C(=O)c1ccc2ncccc2c1)c1ccccc1 (stereo not given),-32.2% (inactive)
7,CC(C)(C)C(O)C(Cc1ccccc1Cl)n1cncn1 (stereo not given),-53.7% (inactive)
8,O=C(Oc1c(-c2ccccc2)c(=O)n2c3c(cccc13)CC2)c1cccc([N+](=O)[O-])c1,-37.6% (inactive)
9,CCCCCC1CCC(c2n[nH]c(=S)n2C)CC1 (stereo not given),-58.3% (inactive)
10,CCN(CC)C(=O)C1CCCc2c1[nH]c1ccc(Cl)cc21 (stereo not given),-45% (inactive)
11,O=C(O)CSc1nc(-c2ccc(Cl)cc2)nc2c1oc1ccccc12,-84.1% (inactive)
12,CN(C)c1ccc(C=c2c3ccccc3n3c2cc(-c2ccc(Cl)cc2)[n+]3C)cc1,-52.4% (inactive)
13,O=C(CCl)NCCCCCCCCCNC(=O)CCl,8.47% (inactive)
14,O/N=C/c1ccccc1OCc1ccc(Cl)cc1,10.8% (inactive)
15,Cn1ccsc1=NC(=O)c1ccc([N+](=O)[O-])o1,-53.8% (inactive)
16,CCc1cc(C(=O)Nc2nc(-c3ccccn3)cs2)sc1C,-67.6% (inactive)
17,Cc1c(C(=O)O)cccc1-c1ccc(/C=N/Nc2ccc(Br)cc2)o1,-92.6% (inactive)
18,COC(=O)c1cccc2c1-c1ccccc1/C2=N/O,30.5% (inactive)
19,CN(C)c1nc(SCc2ccc(Cl)cc2)nc2c1CCCC2,-65.9% (inactive)
20,Cc1ccccc1CN(C)CCS(=O)(=O)c1cc(Cl)ccc1Cl,-67.7% (inactive)
21,FC(F)(F)c1cccc(N2CCN(C(=S)NC3CCCCC3)CC2)c1,64.1% (inactive)
22,CC1Oc2ccccc2C=C1/C=N/Nc1ccc(C(=O)O)cc1 (stereo not given),-32.7% (inactive)
23,O=C(Nc1ccc(C2=NCCN2)cc1)c1ccc(C(=O)Nc2ccc(C3=NCCN3)cc2)c(Cl)c1,-69% (inactive)

row,Compound,growth rescue activity
1,Cc1ccccc1C(=O)NNC(=S)NC(=O)c1ccc(Cl)cc1Cl,-23.2% (inactive)
2,O=[N+]([O-])c1ccc2c(c1)Cc1cc(O)ccc1-2,4.71% (inactive)
3,O=S1OC(c2ccccc2)c2cc(Cl)ccc21 (stereo not given),-14.3% (inactive)
4,Cc1cc(O)c(-c2cc(O)c(C)cc2O)cc1O,-8.5% (inactive)
5,O=C(NCc1ccncc1)c1ccccc1Nc1ccc(SC(F)F)cc1,-49.8% (inactive)
6,Cn1c(-c2ccccc2)cnc1NCc1ccc(-c2ccccc2)cc1,-67.3% (inactive)
7,N#Cc1c(-c2cccc([N+](=O)[O-])c2)nc2n(c1=O)CCS2,1.05% (inactive)
8,Cc1ccc(S(=O)(=O)Nc2ccc(O)c3cccnc23)cc1,-0.63% (inactive)
9,O/N=C(\c1ccc(Cl)cc1Cl)c1ncc(C(F)(F)F)cc1Cl,-32.2% (inactive)
10,O=C1c2ccccc2-n2c1nc1ccccc1c2=O,-48.7% (inactive)
11,Cn1c(CNc2ccccc2O)nc2ccccc21,-50% (inactive)
12,NC(=O)N=Nc1c2[nH]c3ccccc3nc-2c2ccccc12,6.67% (inactive)
13,COc1ccc(C(=O)On2c(-c3ccc(Br)cc3)nc3ccccc3c2=O)cc1,-5.26% (inactive)
14,CC1=C(C)C(=O)C(CCCCC#CCCCC#CCO)=C(C)C1=O,-34.8% (inactive)
15,COc1nc(NC23CC4CC(CC(C4)C2)C3)nc(OC)n1,145% (inactive)
16,CCCCn1c(=O)c(C(=O)NCc2ccncc2)c(O)c2ccccc21,33% (inactive)
17,CN(C)c1nc(-c2ccccn2)nnc1-c1ccccc1,-23.6% (inactive)
18,Clc1ccccc1C(c1ccccc1)(c1ccccc1)n1ccnc1,-48.3% (inactive)
19,CCCOc1ccc(S(=O)(=O)n2cc(F)c(=O)[nH]c2=O)cc1,0% (inactive)
20,Nc1nonc1C(=O)NCCN=Cc1cc(Cc2ccccc2)cc(Br)c1O,-81% (inactive)
21,Cc1cc2nc(-c3ccc4c(c3)CCC4)ccn2n1,-10.6% (inactive)
